Reference: patent US20060069132A1, “Azolecarboxamide herbicides” (priority 2004, published 2006)
Read-outs that look alike come from different tables or passages of the source.

Assays:
[1] = system: barnyardgrass; test: Test B pre-/postemergence herbicide test; type: in vivo, Echinochloa crus-galli
Outline: (§1)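 Visual rating, 0 (no effect) to 100 (complete control), versus untreated controls after 13–15 d in greenhouse. Pre- and postemergence applications (postemergence plants 2–18 cm, 1–4 leaves); flooded paddy arm at 2-leaf stage. Compounds in non-phytotoxic solvent plus surfactant.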

[2] = system: Surinam grass; test: Test B pre-/postemergence herbicide test; type: in vivo, Urochloa decumbens
Outline: as §1

[3] = system: cocklebur; test: Test B pre-/postemergence herbicide test; type: in vivo, Xanthium strumarium
Outline: as §1

[4] = system: corn; test: Test B pre-/postemergence herbicide test; type: in vivo, Zea mays
Outline: as §1

[5] = system: large crabgrass; test: Test B pre-/postemergence herbicide test; type: in vivo, Digitaria sanguinalis
Outline: as §1

[6] = system: giant foxtail; test: Test B pre-/postemergence herbicide test; type: in vivo, Setaria faberi
Outline: as §1

[7] = system: pigweed; test: Test B pre-/postemergence herbicide test; type: in vivo, Amaranthus retroflexus
Outline: as §1

[8] = system: velvetleaf; test: Test B pre-/postemergence herbicide test; type: in vivo, Abutilon theophrasti
Outline: as §1

[9] = system: blackgrass; test: Test B postemergence herbicide test; type: in vivo, Alopecurus myosuroides; settings: Postemergence, scale 0 (no effect) to 100 (complete control); for Plant response rating, Blackgrass: 500 g ai/ha, visual rating after 13 to 15 days
Outline: (§2)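 Visual ratings, 0 (no effect) to 100 (complete control), made versus controls after 13–15 d greenhouse. Paddy plants treated at 2-leaf stage; postemergence plants at 1- to 4-leaf stage, 2–18 cm tall.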

[10] = system: wheat; test: Test B postemergence herbicide test; type: in vivo, Triticum aestivum; settings: Postemergence, scale 0 (no effect) to 100 (complete control); for Plant response rating, Wheat: 500 g ai/ha, visual rating after 13 to 15 days
Outline: (§3)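 Formulated test chemicals went onto postemergence plants measuring 2 to 18 cm, at one to four leaves. For the paddy assay, species had reached two leaves. Scoring took place 13–15 days later by eye, relative to untreated plants, using 0 for no effect up to 100 for full control.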

[11] = system: wild oat; test: Test B postemergence herbicide test; type: in vivo, Avena fatua; settings: Postemergence, scale 0 (no effect) to 100 (complete control); for Plant response rating, Oat, Wild: 500 g ai/ha, visual rating after 13 to 15 days
Outline: as §3

[12] = system: rice; test: Test B flooded paddy test; type: in vivo, Oryza sativa; settings: 1000 g ai/ha, visual rating, scale 0 to 100 (0 no effect, 100 complete control), 13 to 15 days
Outline: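 Read-out: visual comparison with controls, scored 0 to 100, where 100 means complete control and 0 no effect. Formulated chemicals were applied postemergence to plants 2–18 cm tall (1- to 4-leaf), or to flooded-paddy plants at the 2-leaf stage, then held 13 to 15 days under glass.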

[13] = system: small flower umbrella sedge; test: Test B flooded paddy test; type: in vivo, Cyperus difformis; settings: 1000 g ai/ha, visual rating, scale 0 to 100 (0 no effect, 100 complete control), 13 to 15 days
Outline: as §2

[14] = system: ducksalad; test: Test B flooded paddy test; type: in vivo, Heteranthera limosa; settings: 1000 g ai/ha, visual rating, scale 0 to 100 (0 no effect, 100 complete control), 13 to 15 days
Outline: as §2

[15] = system: barnyardgrass; test: Test B flooded paddy test; type: in vivo, Echinochloa crus-galli; settings: 1000 g ai/ha, visual rating, scale 0 to 100 (0 no effect, 100 complete control), 13 to 15 days
Outline: as §2

[16] = Postemergence, 125 g ai/ha, scale 0 (no effect) to 100 (complete control)
[17] = Postemergence, 500 g ai/ha, visual rating after 13 to 15 days, scale 0 (no effect) to 100 (complete control)
[18] = Preemergence, 500 g ai/ha, scale 0 to 100
[19] = preemergence, 125 g ai/ha, 0 to 100 scale, 0 is no effect, 100 is complete control

## CCn1nc(C(C)(C)C)cc1C(=O)Nc1cc(C(=O)N(C)C)ccc1F [Compound 6, N-[5-[(dimethylamino)carbonyl]-2-fluorophenyl]-3-(1,1-dimethylethyl)-1-ethyl-1H-pyrazole-5-carboxamide]
[1]; Echinochloa crus-galli, post-emergence, Postemergence, 125 g ai/ha, scale 0 (no effect) to 100 (complete control), read-out: Barnyardgrass plant response rating
  pest or weed control at 125 g/ha: 0%
[1]; Echinochloa crus-galli, post-emergence, Postemergence, 500 g ai/ha, visual rating after 13 to 15 days, scale 0 (no effect) to 100 (complete control), read-out: Plant response rating, Barnyardgrass
  pest or weed control at 500 g/ha: 80%
[1]; Echinochloa crus-galli, pre-emergence, Preemergence, 500 g ai/ha, scale 0 to 100, read-out: Barnyardgrass plant response rating
  pest or weed control at 500 g/ha: 100%
[2]; Urochloa decumbens, post-emergence, Postemergence, 125 g ai/ha, scale 0 (no effect) to 100 (complete control), read-out: Surinam Grass plant response rating
  pest or weed control at 125 g/ha: 10%
[2]; Urochloa decumbens, post-emergence, Postemergence, 500 g ai/ha, visual rating after 13 to 15 days, scale 0 (no effect) to 100 (complete control), read-out: Plant response rating, Surinam Grass
  pest or weed control at 500 g/ha: 60%
[2]; Urochloa decumbens, pre-emergence, Preemergence, 500 g ai/ha, scale 0 to 100, read-out: Surinam Grass plant response rating
  pest or weed control at 500 g/ha: 100%
[3]; Xanthium strumarium, post-emergence, Postemergence, 125 g ai/ha, scale 0 (no effect) to 100 (complete control), read-out: Cocklebur plant response rating
  pest or weed control at 125 g/ha: 0%
[3]; Xanthium strumarium, post-emergence, Postemergence, 500 g ai/ha, visual rating after 13 to 15 days, scale 0 (no effect) to 100 (complete control), read-out: Plant response rating, Cocklebur
  pest or weed control at 500 g/ha: 80%
[3]; Xanthium strumarium, pre-emergence, Preemergence, 500 g ai/ha, scale 0 to 100, read-out: Cocklebur plant response rating
  pest or weed control at 500 g/ha: 100%
[4]; Zea mays, post-emergence, Postemergence, 125 g ai/ha, scale 0 (no effect) to 100 (complete control), read-out: Corn plant response rating
  plant injury at 125 g/ha: 0%
[4]; Zea mays, post-emergence, Postemergence, 500 g ai/ha, visual rating after 13 to 15 days, scale 0 (no effect) to 100 (complete control)
  Corn plant response rating (crop injury, 0 = no effect, 100 = complete kill) at 500 g/ha: 60%
[4]; Zea mays, pre-emergence, Preemergence, 500 g ai/ha, scale 0 to 100, read-out: Corn plant response rating
  plant injury at 500 g/ha: 90%
[5]; Digitaria sanguinalis, post-emergence, Postemergence, 125 g ai/ha, scale 0 (no effect) to 100 (complete control), read-out: Crabgrass, Large plant response rating
  pest or weed control at 125 g/ha: 20%
[5]; Digitaria sanguinalis, post-emergence, Postemergence, 500 g ai/ha, visual rating after 13 to 15 days, scale 0 (no effect) to 100 (complete control), read-out: Plant response rating, Crabgrass, Large
  pest or weed control at 500 g/ha: 30%
[5]; Digitaria sanguinalis, pre-emergence, Preemergence, 500 g ai/ha, scale 0 to 100, read-out: Crabgrass, Large plant response rating
  pest or weed control at 500 g/ha: 100%
[6]; Setaria faberi, post-emergence, 336 h, Postemergence, 125 g ai/ha, scale 0 (no effect) to 100 (complete control), read-out: Foxtail, Giant plant response rating
  pest or weed control at 125 g/ha: 10%
[6]; Setaria faberi, post-emergence, 336 h, Postemergence, 500 g ai/ha, visual rating after 13 to 15 days, scale 0 (no effect) to 100 (complete control), read-out: Plant response rating, Foxtail, Giant
  pest or weed control at 500 g/ha: 20%
[6]; Setaria faberi, pre-emergence, 336 h, Preemergence, 500 g ai/ha, scale 0 to 100, read-out: Foxtail, Giant plant response rating
  pest or weed control at 500 g/ha: 100%
[7]; Amaranthus retroflexus, post-emergence, 336 h, Postemergence, 125 g ai/ha, scale 0 (no effect) to 100 (complete control), read-out: Pigweed plant response rating
  pest or weed control at 125 g/ha: 20%
[7]; Amaranthus retroflexus, post-emergence, 336 h, Postemergence, 500 g ai/ha, visual rating after 13 to 15 days, scale 0 (no effect) to 100 (complete control), read-out: Plant response rating, Pigweed
  pest or weed control at 500 g/ha: 70%
[7]; Amaranthus retroflexus, pre-emergence, 336 h, Preemergence, 500 g ai/ha, scale 0 to 100, read-out: Pigweed plant response rating
  pest or weed control at 500 g/ha: 100%
[8]; Abutilon theophrasti, post-emergence, 336 h, Postemergence, 125 g ai/ha, scale 0 (no effect) to 100 (complete control), read-out: Velvetleaf plant response rating
  pest or weed control at 125 g/ha: 0%
[8]; Abutilon theophrasti, post-emergence, 336 h, Postemergence, 500 g ai/ha, visual rating after 13 to 15 days, scale 0 (no effect) to 100 (complete control), read-out: Plant response rating, Velvetleaf
  pest or weed control at 500 g/ha: 60%
[8]; Abutilon theophrasti, pre-emergence, 336 h, Preemergence, 500 g ai/ha, scale 0 to 100, read-out: Velvetleaf plant response rating
  pest or weed control at 500 g/ha: 100%
[9]; Alopecurus myosuroides, post-emergence, 336 h, 125 g ai/ha, read-out: Blackgrass plant response rating
  pest or weed control at 125 g/ha: 20%
[9]
  Plant response rating, Blackgrass: 90
[10]
  Plant response rating, Wheat: 40
[10]; Triticum aestivum, post-emergence, 336 h, 125 g ai/ha, read-out: Wheat plant response rating
  plant injury at 125 g/ha: 0%
[11]; Avena fatua, post-emergence, 336 h, 125 g ai/ha, read-out: Oat, Wild plant response rating
  pest or weed control at 125 g/ha: 10%
[11]
  Plant response rating, Oat, Wild: 70
[12]; Oryza sativa, 336 h, read-out: Rice plant response rating
  plant injury at 1000 g/ha: 80%
[13]; Cyperus difformis, 336 h, read-out: Sedge, Umbrella plant response rating
  pest or weed control at 1000 g/ha: 90%
[14]; Heteranthera limosa, 336 h, read-out: Ducksalad plant response rating
  pest or weed control at 1000 g/ha: 90%
[15]; Echinochloa crus-galli, 336 h, read-out: Barnyardgrass plant response rating
  pest or weed control at 1000 g/ha: 90%

## CCCCn1nc(C(C)(C)C)cc1C(=O)Nc1cccc(C(=O)NCC)c1 [Compound 41]
[1]; [16]
  Barnyardgrass plant response rating: 10
[1]; [17]
  Plant response rating, Barnyardgrass: 20
[1]; [18]
  Barnyardgrass plant response rating: 80
[2]; [17]
  Plant response rating, Surinam Grass: 20
[2]; [18]
  Surinam Grass plant response rating: 60
[2]; [19]
  Plant response rating, Surinam Grass: 10
[3]; [16]
  Cocklebur plant response rating: 10
[3]; [17]
  Plant response rating, Cocklebur: 40
[3]; [18]
  Cocklebur plant response rating: 0
[4]; [18]
  Corn plant response rating: 0
[5]; [16]
  Crabgrass, Large plant response rating: 20
[5]; [17]
  Plant response rating, Crabgrass, Large: 30
[5]; [18]
  Crabgrass, Large plant response rating: 100
[6]; [16]
  Foxtail, Giant plant response rating: 10
[6]; [17]
  Plant response rating, Foxtail, Giant: 20
[6]; [18]
  Foxtail, Giant plant response rating: 70
[6]; [19]
  Plant response rating, Foxtail, Giant: 10
[7]; [17]
  Plant response rating, Pigweed: 70
[7]; [18]
  Pigweed plant response rating: 70
[7]; [19]
  Plant response rating, Pigweed: 70
[8]; [17]
  Plant response rating, Velvetleaf: 20
[8]; [18]
  Velvetleaf plant response rating: 10
[8]; [19]
  Plant response rating, Velvetleaf: 0
[9]; 125 g ai/ha
  Blackgrass plant response rating: 10
[9]
  Plant response rating, Blackgrass: 20
[10]
  Plant response rating, Wheat: 10
[11]; 125 g ai/ha
  Oat, Wild plant response rating: 10
[11]
  Plant response rating, Oat, Wild: 10
[12]
  Rice plant response rating: 20
[13]
  Sedge, Umbrella plant response rating: 70
[14]
  Ducksalad plant response rating: 60
[15]
  Barnyardgrass plant response rating: 50
